What was measured:
CB1 receptors = biological target: T1, CB1 receptors (Mus musculus, UniProt P47746); experiment: in vivo test (binding ex vivo) in mice after intravenous and/or oral administration
T1 construct: from tissue
Description: The compounds according to the invention were tested in vivo (binding ex vivo) in mice after intravenous and/or oral administration, according to the experimental conditions described by Rinaldi-Carmona et al. (J. Pharmacol. Exp., 1998, 284, 644-650). […] By the oral route, compounds 2, 3, 4, 11 and 12 have an ED50 of between 1 and 20 mg/kg for the CB1 receptors.

[1] = biological target: CB1 cannabinoid receptors (Homo sapiens, UniProt P21554); conditions: cited from earlier work
Sequence of CB1 cannabinoid receptors (P21554 whole entry): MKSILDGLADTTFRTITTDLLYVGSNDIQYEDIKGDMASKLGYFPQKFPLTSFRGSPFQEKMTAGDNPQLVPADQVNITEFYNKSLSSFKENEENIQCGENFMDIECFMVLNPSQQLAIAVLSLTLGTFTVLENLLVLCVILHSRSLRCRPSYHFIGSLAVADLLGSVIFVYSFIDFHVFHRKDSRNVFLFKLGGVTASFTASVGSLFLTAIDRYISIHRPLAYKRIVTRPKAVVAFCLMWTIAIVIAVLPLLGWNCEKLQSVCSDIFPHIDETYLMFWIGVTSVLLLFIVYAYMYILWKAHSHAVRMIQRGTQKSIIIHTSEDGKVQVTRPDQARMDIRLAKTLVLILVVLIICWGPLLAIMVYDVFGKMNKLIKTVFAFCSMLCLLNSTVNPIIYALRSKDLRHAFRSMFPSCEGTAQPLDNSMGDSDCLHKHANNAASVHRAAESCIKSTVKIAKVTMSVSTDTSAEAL

T1 sequence (P47746 whole entry): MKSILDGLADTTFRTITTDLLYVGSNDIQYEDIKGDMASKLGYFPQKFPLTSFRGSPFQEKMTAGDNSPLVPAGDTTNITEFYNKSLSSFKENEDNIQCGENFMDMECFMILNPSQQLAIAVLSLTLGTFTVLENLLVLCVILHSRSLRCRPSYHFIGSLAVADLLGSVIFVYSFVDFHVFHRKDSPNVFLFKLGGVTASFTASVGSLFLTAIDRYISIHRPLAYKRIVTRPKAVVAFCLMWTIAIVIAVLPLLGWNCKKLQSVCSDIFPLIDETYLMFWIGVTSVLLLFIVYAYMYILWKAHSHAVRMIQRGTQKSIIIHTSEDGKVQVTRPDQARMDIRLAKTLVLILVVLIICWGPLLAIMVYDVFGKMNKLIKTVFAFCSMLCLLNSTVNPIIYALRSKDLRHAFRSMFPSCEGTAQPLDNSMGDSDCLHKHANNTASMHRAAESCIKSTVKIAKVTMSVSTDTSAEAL

Row | ED50 (CB1 receptors) [mg/kg] | Compound | properties for the CB1 cannabinoid receptors [1]
1 | 1 to 20 | CC(C)(C)NC(=O)c1nn(-c2ccc(Cl)cc2Cl)c(-c2ccc(Br)cc2)c1C#N [Compound 12, 5-(4-Bromophenyl)-4-cyano-1-(2,4-dichlorophenyl)-N-tert-butyl-1H-pyrazole-3-carboxamide] | –
2 | – | COc1ccc(-c2c(C#N)c(C(=O)Nc3ccccc3)nn2-c2ccccc2Cl)cc1 [N-phenyl-1-(2-chlorophenyl)-4-cyano-5-(4-methoxyphenyl)-1H-pyrazole-3-carboxamide] | inverse agonist properties
